Assay results reported in patent US8778871B2 (Takeda Pharmaceutical Company Limited, priority 2004, dated 2014).
Non-standard residues stand in square brackets, D forms with d. No end group written: not given here. Arg(Me) = CNC(=N)NCCC[C@H](N)C(=O)O; azaGly = NNC(=O)O

Columns and labels:
hOT7T175 [1] = molecular target: T1, hOT7T175 (Homo sapiens, UniProt Q969F8, L364H); assay type: cell-based; conditions: hOT7T175/CHO, FLIPR, evaluation for 40 seconds after initiation of the reaction
T1 construct: expressed in transfected cells
T1 sequence (Q969F8 whole entry L364H): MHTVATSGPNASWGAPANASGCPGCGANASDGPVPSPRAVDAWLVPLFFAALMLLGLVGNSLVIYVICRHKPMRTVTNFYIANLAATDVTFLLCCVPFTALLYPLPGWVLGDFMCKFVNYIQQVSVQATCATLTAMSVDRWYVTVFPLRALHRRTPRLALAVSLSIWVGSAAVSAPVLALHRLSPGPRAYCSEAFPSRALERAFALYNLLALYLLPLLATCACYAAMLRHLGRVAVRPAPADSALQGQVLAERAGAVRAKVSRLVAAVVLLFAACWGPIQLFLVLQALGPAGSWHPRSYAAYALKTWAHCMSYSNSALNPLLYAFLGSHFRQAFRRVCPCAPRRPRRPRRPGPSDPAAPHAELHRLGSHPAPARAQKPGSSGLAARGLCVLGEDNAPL
Experimental: The intracellular Ca ion level-increasing activity was measured using FLIPR as in TEST EXAMPLE 2.

hOT7T175 [2] = molecular target: T2, hOT7T175 (Homo sapiens, UniProt Q969F8); experiment: Intracellular Ca ion level-increasing activity using FLIPR (180 seconds; specific activity to Metastin (1-54)); assay type: cell-based; conditions: hOT7T175/CHO, change in intracellular calcium ion level for 180 seconds, Tables 21-23
T2 construct: expressed in transfected cells
T2 sequence (Q969F8 whole entry L364H): as above

[3] = Blood testosterone level decreasing effect in mature male rat (0.1 mM peptide solution); assay type: in vivo
Experimental: (§1) This peptide solution was filled in 5 ALZET osmotic pumps (Model 2001, 0.2 ml in volume, release rate: 0.001 ml/hr, DURECT Corporation). The ALZET pumps filled with the peptide solution were implanted subcutaneously in 5 CD(SD)IGS male rats of 9 weeks old after birth (Charles River Japan, Inc.) on the back under ether anesthesia by one pump for one animal. For negative control, distilled water (Otsuka Pharmaceutical Co., Ltd.) was filled in 5 ALZET osmotic pumps, which were similarly implanted in 5 male CD(SD)IGS rats (Charles River Japan, Inc.), respectively. These pump-implanted rats were fed for 6 days under normal feeding conditions. After weighing, the animal was decapitated to collect blood. After 0.03 ml/ml blood of aprotinin solution (Trasylol, Bayer) containing 0.1 mg/ml EDTA.2Na was added to blood, the mixture was centrifuged at 1,800 G for 25 minutes to isolate/recover plasma. From the plasma obtained, 0.05 ml was applied to radioimmunoassay (DPC.Total Testosterone Kit, Diagnostic Products Corporation) to measure the plasma testosterone level of each rat. The value below the limit of measurement (0.04 ng/ml of plasma level) in radioimmunoassay was treated as 0. A mean value of the testosterone levels from 5 rats receiving the peptide was calculated and a relative value (percent) of the mean value to a mean value from 5 rats receiving distilled water.
In a manner similar to TEST EXAMPLE 14, evaluation was made using 0.1 mM peptide solution and a part of the results obtained are shown in TABLE 30.

[4] = Blood testosterone level decreasing effect in mature male rat (2 mM peptide solution, ALZET osmotic pump); assay type: in vivo; conditions: 2 mM peptide solution in distilled water, ALZET osmotic pump s.c., 6 days, Tables 28 and 29
Experimental: as §1

hOT7T175 [5] = molecular target: T1, hOT7T175; experiment: Intracellular Ca ion level-increasing activity using FLIPR (180 seconds; specific activity to Metastin (1-54)); assay type: cell-based; conditions: hOT7T175/CHO, relative to Metastin (1-54) = 1

3-Phenylpropionyl-Asn-Ser-Phe-AzaGly-Leu-Arg(Me)-Trp-NH2 [Compound No. 499]
Specific Act. (EC50/MS10 EC50) (hOT7T175 [1]): 1.4
intracellular Ca ion level-increasing activity [specific activity to Metastin (1-54)] (hOT7T175 [2]): 10
Teststerone level in Blood [3]: 32%
Teststerone level in Blood [4]: 2%

H-YNWNSFGLRW-NH2 [Compound No. 134]
Specific Act. (EC50/MS10 EC50) (hOT7T175 [1]): 0.5
Specific Act. (intracellular Ca ion level-increasing activity, specific activity to Metastin (1-54)) (hOT7T175 [5]): 30
Teststerone level in Blood [4]: 50%

[dY][dW]NTF[azaGly]L[Arg(Me)]W-NH2 [Compound No. 512]
Specific Act. (EC50/MS10 EC50) (hOT7T175 [1]): 0.8
intracellular Ca ion level-increasing activity [specific activity to Metastin (1-54)] (hOT7T175 [2]): 30
Teststerone level in Blood [3]: 38%
Teststerone level in Blood [4]: 2%

D-Tyr-D-Pya(4)-Asn-Ser-Phe-AzaGly-Leu-Arg(Me)-Trp-NH2 [Compound No. 385]
Specific Act. (EC50/MS10 EC50) (hOT7T175 [1]): 0.7
intracellular Ca ion level-increasing activity [specific activity to Metastin (1-54)] (hOT7T175 [2]): 10
Teststerone level in Blood [3]: 33%
Teststerone level in Blood [4]: 2%
